From US11926616B2, “Aminopyrazine diol compounds as PI3K-γ inhibitors” (Incyte Corporation, priority 2018, dated 2024)

What follows are compounds tested on Phosphorylated Ribosomal Protein S6 (RPS6) in THP-1 cells (assay: THP-1 RPS6 ELISA Assay). Conditions: Homo sapiens; THP-1 cells, serum starved, 2 hours compound, 10 nM MCP-1 for 15 minutes, Phospho-RPS6 ELISA; read-out: PI3Kγ_THP1_RPS6_ELISA IC50.
Assay type: cell-based, Human
Description: Example A. THP-1 RPS6 ELISA Assay
To measure the Phosphorylated Ribosomal Protein S6 (RPS6) in cell lysates, THP-1 cells (Human Acute Monocytic Leukemia) are purchased from ATCC (Manassas, VA) and maintained in RPMI with 10% FBS (Gibco/Life Technologies, Carlsbad, CA). For the assay, THP-1 cells are serum starved overnight in RPMI, then plated in RPMI (2×10^5 cells/well in 90 μL) into 96-well flat-bottom tissue culture treated plates (Corning, Corning, NY), in the presence or absence of a concentration range of test compounds. Covered plates are incubated for 2 hours at 37° C., 5% CO2 then treated with or without 10 nM MCP-1(MYBioSource, San Diego, CA) for 15 minutes at 37° C., 5% CO2. Plates are centrifuged at 1600 RPM and supernatants are removed. Cells are lysed in Lysis Buffer (Cell Signaling, Danvers, MA) with Protease Inhibitor (Calbiochem/EMD, Germany), PMSF (Sigma, St Louis MO), HALTS (Thermo Fisher, Rockford, IL) for 30 min on wet ice. Cell lysates are frozen at −80° C. before testing. The lysates are tested in the Human/Mouse/Rat Phospho-RPS6 ELISA (R&D Systems, Inc. Minn, MN). The plate is measured using a microplate reader (SpectraMax M5—Molecular Devices, LLC Sunnyvale, CA) set to 450 nm with a wavelength correction of 540. IC50 determination is performed by fitting the curve of inhibitor percent inhibition versus the log of the inhibitor concentration using the GraphPad Prism 5.0 software.

Row | SMILES | IC50
1 | Cc1cc(-c2nc(-c3cc(C(O)(CO)C(F)(F)F)ccc3C)cnc2N)on1 (single isomer, unassigned) [Example 4, 2-(3-(5-Amino-6-(3-methylisoxazol-5-yl)pyrazin-2-yl)-4-methylphenyl)-3,3,3-trifluoropropane-1,2-diol] | < 100 nM
2 | Cc1cc(-c2nc(-c3cc(C(O)(CO)C(F)(F)F)ccc3C)cnc2N)sn1 (single isomer, unassigned) [Example 7, 2-(3-(5-amino-6-(3-methylisothiazol-5-yl)pyrazin-2-yl)-4-methylphenyl)-3,3,3-trifluoropropane-1,2-diol] | < 100 nM
3 | Cc1ccc(C(O)(CO)C(F)(F)F)cc1-c1cnc(N)c(-n2ccnn2)n1 (single isomer, unassigned) [Example 13, 2-(3-(5-Amino-6-(1H-1,2,3-triazol-1-yl)pyrazin-2-yl)-4-methylphenyl)-3,3,3-trifluoropropane-1,2-diol] | < 100 nM
4 | Cc1ccc(C(O)(CO)C(F)(F)F)cc1-c1cnc(N)c(-n2cncn2)n1 (single isomer, unassigned) [Example 15, 2-(3-(5-Amino-6-(1H-1,2,4-triazol-1-yl)pyrazin-2-yl)-4-methylphenyl)-3,3,3-trifluoropropane-1,2-diol] | < 500 nM
5 | [2H]C([2H])([2H])c1ccc(C(O)(CO)C(F)(F)F)cc1-c1cnc(N)c(C(=O)NC23CC(CO)(C2)C3)n1 (single isomer, unassigned) [Example 32] | < 100 nM
6 | [2H]C([2H])([2H])c1ccc(C(O)(CO)C(F)(F)F)cc1-c1cnc(N)c(C(=O)N[C@@H](C)CO)n1 (single isomer, unassigned) [Example 33] | < 100 nM
7 | [2H]C([2H])([2H])c1ccc(C(O)(CO)C(F)(F)F)cc1-c1cnc(N)c(C(=O)NCC(C)(C)C#N)n1 (single isomer, unassigned) [Example 34] | < 100 nM
8 | [2H]C([2H])([2H])c1ccc(C(O)(CO)C(F)(F)F)cc1-c1cnc(N)c(C(=O)NC23CCC(O)(CC2)C3)n1 (single isomer, unassigned) [Example 35] | < 100 nM
9 | [2H]C([2H])([2H])c1ccc(C(O)(CO)C(F)(F)F)cc1-c1cnc(N)c(C(=O)N[C@H](C)CO)n1 (single isomer, unassigned) [Example 36] | < 500 nM

Results, then the compound that gave them:

Row | IC50 | SMILES
10 | < 100 nM | Cc1ccc(C(O)(CO)C(F)(F)F)cc1-c1cnc(N)c(-c2cnn(C)c2)n1 (single isomer, unassigned) [Example 2, 2-(3-(5-Amino-6-(1-methyl-1H-pyrazol-4-yl)pyrazin-2-yl)-4-methylphenyl)-3,3,3-trifluoropropane-1,2-diol]
11 | < 100 nM | Cc1ccc(C(O)(CO)C(F)(F)F)cc1-c1cnc(N)c(-c2cn[nH]c2)n1 (single isomer, unassigned) [Example 3, 2-(3-(5-Amino-6-(1H-pyrazol-4-yl)pyrazin-2-yl)-4-methylphenyl)-3,3,3-trifluoropropane-1,2-diol]
12 | < 100 nM | Cc1ccc(C(O)(CO)C(F)(F)F)cc1-c1cnc(N)c(-c2cnsc2)n1 (single isomer, unassigned) [Example 5, 2-(3-(5-Amino-6-(isothiazol-4-yl)pyrazin-2-yl)-4-methylphenyl)-3,3,3-trifluoropropane-1,2-diol]
13 | < 100 nM | Cc1ccc(C(O)(CO)C(F)(F)F)cc1-c1cnc(N)c(-c2ccns2)n1 (single isomer, unassigned) [Example 6, 2-(3-(5-Amino-6-(isothiazol-5-yl)pyrazin-2-yl)-4-methylphenyl)-3,3,3-trifluoropropane-1,2-diol]
14 | < 100 nM | Cc1ncc(-c2nc(-c3cc(C(O)(CO)C(F)(F)F)ccc3C)cnc2N)s1 (single isomer, unassigned) [Example 10, 2-(3-(5-Amino-6-(2-methylthiazol-5-yl)pyrazin-2-yl)-4-methvlphenyl)-3,3,3-trifluoropropane-1,2-diol]
15 | < 100 nM | Cc1ccc(C(O)(CO)C(F)(F)F)cc1-c1cnc(N)c(-c2cnco2)n1 (single isomer, unassigned) [Example 11, 2-(3-(5-Amino-6-(oxazol-5-yl)pyrazin-2-yl)-4-methylphenyl)-3,3,3-trifluoropropane-1,2-diol]
